Measurements: patent EP4745137A1 (Gluetacs Therapeutics (Shanghai) Co., Ltd., priority 2023, dated 2025)

Columns and labels:
Type in all cases: cell-based
Settings in all cases: 24 hours of compound treatment
IKZF3 = molecular target: T1, IKZF3 (Homo sapiens, UniProt Q96SW2+Q9UKT9); experiment: Western-blot assay of substrate protein degradation in hPBMCs, IKZF3
T1 construct: endogenous in cells; host or cells: hPBMCs (Milecell Biotechnologies)
Procedure: (§1) After 24 hours of compounds treatment, cells were harvested and lysed in RIPA protein lysate containing protease inhibitors on ice for 30 min, followed by centrifugation. The supernatant was aspirated as the extracted total cell protein. The protein concentration of the supernatant was determined using the conventional BCA (Bicinchoninic Acid) assay. • (2) To the collected supernatant, 5X SDS sample loading buffer was added, followed by denaturation at 95°C for 5 minutes. The denatured samples were then separated by SDS-PAGE electrophoresis on a polyacrylamide gel, transferred onto a nitrocellulose membrane (0.45 µm NC membrane), blocked with blocking buffer at room temperature for 1 hour, and subjected to antibody incubation and development procedures according to the antibody manufacturer's instructions (Cell Signaling Technology Company). […]
(§2) Target protein remaining (%) refers to the percentage of target protein remaining in cells after treatment with protein degrader compounds.
(§3) Calculation method for target protein remaining (%): Use ImageJ software to measure grayscale values of Western blot bands from drug (protein degrader)-treated samples. The grayscale value of drug-treated bands is divided by that of internal control protein bands, and the resulting quotient is normalized to obtain the relative percentage of remaining target protein after protein degrader treatment. Target protein degradation rate(%) = 1−target protein remaining(%). [formula]

IKZF2 = molecular target: T2, IKZF2 (Homo sapiens, UniProt Q96SW2+Q9UKS7); experiment: Western-blot assay of substrate protein degradation in hPBMCs, IKZF2
T2 construct: endogenous in cells; host or cells: hPBMCs (Milecell Biotechnologies)
Procedure: as §1, §2, §3

WEE1 = molecular target: T3, WEE1 (Homo sapiens, UniProt P30291+Q96SW2); experiment: Western-blot assay of substrate protein degradation in hPBMCs, WEE1
T3 construct: endogenous in cells; host or cells: hPBMCs (Milecell Biotechnologies)
Procedure: as §1, §2, §3

GSPT1 = molecular target: T4, GSPT1 (Homo sapiens, UniProt P15170+Q96SW2); experiment: Western-blot assay of substrate protein degradation in hPBMCs, GSPT1
T4 construct: endogenous in cells; host or cells: hPBMCs (Milecell Biotechnologies)
Procedure: as §1, §2, §3

CK1α = molecular target: T5, CK1α (Homo sapiens, UniProt P48729+Q96SW2); experiment: Western-blot assay of substrate protein degradation in hPBMCs, CK1α
T5 construct: endogenous in cells; host or cells: hPBMCs (Milecell Biotechnologies)
Procedure: as §1, §2, §3

IKZF1 = molecular target: T6, IKZF1 (Homo sapiens, UniProt Q13422+Q96SW2); experiment: Western-blot assay of substrate protein degradation in hPBMCs, IKZF1
T6 construct: endogenous in cells; host or cells: hPBMCs (Milecell Biotechnologies)
Procedure: as §1, §2, §3

[1] = 50 nM and 500 nM tested (concentration behind the class not stated)
[2] = compounds tested at 50 nM and 500 nM (concentration of the table not stated)

T1 sequence (Q9UKT9 whole entry): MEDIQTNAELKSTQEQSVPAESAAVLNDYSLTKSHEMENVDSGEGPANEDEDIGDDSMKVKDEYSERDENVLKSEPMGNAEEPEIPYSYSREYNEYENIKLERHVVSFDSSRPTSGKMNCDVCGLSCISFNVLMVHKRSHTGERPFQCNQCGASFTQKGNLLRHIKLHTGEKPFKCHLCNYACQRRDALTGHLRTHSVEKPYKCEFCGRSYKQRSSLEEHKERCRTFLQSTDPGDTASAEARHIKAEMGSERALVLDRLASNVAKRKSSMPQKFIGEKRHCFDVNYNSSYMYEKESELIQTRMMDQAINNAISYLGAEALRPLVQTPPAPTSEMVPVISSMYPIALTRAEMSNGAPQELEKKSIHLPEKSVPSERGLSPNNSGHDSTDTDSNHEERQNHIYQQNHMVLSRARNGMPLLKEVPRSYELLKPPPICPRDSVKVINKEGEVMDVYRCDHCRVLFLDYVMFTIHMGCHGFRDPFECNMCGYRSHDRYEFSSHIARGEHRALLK
T1 sequence (Q96SW2 whole entry): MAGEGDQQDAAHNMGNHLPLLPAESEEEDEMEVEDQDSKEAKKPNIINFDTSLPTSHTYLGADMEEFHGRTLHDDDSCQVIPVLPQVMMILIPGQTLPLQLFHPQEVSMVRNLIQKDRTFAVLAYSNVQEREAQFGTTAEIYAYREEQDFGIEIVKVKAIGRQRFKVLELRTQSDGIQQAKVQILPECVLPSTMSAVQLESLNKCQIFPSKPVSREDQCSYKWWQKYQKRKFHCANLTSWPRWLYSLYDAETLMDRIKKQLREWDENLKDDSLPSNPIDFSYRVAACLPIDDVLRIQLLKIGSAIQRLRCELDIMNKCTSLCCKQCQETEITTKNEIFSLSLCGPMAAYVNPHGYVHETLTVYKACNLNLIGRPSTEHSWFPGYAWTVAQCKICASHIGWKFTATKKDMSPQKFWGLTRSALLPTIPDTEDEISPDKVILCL
T1 sequence (Q16531 whole entry partner): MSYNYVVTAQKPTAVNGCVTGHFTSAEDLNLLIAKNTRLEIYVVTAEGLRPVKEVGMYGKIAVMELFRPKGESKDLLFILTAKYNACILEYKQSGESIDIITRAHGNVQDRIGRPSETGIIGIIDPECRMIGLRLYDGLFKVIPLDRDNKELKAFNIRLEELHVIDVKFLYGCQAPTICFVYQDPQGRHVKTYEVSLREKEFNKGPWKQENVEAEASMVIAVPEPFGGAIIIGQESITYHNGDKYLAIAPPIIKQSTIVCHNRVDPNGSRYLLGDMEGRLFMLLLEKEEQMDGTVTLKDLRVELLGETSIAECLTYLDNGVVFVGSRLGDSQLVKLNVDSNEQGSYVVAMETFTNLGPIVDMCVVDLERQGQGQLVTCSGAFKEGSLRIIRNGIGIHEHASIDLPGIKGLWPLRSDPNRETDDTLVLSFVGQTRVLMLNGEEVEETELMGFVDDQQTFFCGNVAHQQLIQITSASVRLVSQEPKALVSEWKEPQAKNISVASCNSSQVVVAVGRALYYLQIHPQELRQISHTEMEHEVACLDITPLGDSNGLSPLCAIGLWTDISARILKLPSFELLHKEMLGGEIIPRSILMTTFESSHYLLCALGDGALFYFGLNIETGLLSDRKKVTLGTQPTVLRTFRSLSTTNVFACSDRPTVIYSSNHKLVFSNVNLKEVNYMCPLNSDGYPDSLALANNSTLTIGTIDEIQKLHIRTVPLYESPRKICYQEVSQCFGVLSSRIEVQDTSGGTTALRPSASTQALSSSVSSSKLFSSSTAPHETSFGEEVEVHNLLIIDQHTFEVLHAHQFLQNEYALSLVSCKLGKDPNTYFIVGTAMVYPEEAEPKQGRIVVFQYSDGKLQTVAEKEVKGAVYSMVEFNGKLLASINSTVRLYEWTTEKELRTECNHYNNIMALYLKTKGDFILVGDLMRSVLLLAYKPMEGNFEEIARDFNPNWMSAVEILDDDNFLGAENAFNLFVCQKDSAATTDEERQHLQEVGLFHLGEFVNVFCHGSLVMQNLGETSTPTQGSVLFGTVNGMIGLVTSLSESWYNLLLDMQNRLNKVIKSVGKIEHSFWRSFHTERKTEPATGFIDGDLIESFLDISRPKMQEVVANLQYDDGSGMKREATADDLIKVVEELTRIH
T6 sequence (Q13422 whole entry): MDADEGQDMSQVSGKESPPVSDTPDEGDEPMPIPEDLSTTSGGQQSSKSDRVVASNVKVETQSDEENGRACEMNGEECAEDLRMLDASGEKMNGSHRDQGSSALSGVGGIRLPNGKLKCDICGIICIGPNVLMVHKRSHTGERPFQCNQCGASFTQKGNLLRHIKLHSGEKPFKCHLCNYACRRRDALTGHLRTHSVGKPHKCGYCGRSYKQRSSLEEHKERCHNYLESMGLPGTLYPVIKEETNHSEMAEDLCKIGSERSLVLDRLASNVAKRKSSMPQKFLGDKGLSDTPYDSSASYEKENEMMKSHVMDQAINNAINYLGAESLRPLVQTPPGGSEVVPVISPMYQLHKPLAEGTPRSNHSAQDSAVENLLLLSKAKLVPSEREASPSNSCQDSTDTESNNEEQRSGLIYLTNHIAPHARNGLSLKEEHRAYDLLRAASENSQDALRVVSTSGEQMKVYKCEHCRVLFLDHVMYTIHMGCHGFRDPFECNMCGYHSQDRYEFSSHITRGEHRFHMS
T6 sequence (Q96SW2 whole entry): as the sequence (Q96SW2 whole entry) above
T6 sequence (Q16531 whole entry partner): as the sequence (Q16531 whole entry partner) above
T5 sequence (P48729 whole entry): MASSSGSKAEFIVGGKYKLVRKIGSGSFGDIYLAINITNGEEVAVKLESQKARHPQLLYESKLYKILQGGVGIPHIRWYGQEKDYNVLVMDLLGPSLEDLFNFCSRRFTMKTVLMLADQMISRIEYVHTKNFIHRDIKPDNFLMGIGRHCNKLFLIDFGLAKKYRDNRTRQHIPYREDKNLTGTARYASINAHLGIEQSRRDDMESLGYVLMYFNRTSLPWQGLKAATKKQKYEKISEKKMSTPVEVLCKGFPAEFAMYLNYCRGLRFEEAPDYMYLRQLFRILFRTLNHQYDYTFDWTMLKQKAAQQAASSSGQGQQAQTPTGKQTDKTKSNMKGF
T5 sequence (Q96SW2 whole entry): as the sequence (Q96SW2 whole entry) above
T5 sequence (Q16531 whole entry partner): as the sequence (Q16531 whole entry partner) above
T3 sequence (P30291 whole entry): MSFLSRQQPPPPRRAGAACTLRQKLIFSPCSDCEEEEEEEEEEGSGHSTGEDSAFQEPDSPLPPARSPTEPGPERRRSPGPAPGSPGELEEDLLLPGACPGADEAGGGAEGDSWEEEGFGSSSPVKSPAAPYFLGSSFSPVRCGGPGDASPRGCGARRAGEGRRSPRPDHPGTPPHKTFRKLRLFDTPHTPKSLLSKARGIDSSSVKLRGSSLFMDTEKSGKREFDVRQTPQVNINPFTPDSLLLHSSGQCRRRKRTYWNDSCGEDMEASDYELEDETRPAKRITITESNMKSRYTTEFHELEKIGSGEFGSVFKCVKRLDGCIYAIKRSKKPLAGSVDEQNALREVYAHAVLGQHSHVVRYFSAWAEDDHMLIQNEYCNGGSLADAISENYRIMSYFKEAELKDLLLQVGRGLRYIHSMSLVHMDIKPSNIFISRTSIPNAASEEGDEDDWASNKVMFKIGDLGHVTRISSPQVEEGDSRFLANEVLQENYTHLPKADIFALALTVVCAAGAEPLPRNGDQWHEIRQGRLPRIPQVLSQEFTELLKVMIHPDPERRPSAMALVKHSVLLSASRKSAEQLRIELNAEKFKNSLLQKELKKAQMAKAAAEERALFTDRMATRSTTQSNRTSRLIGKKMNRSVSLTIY
T3 sequence (Q96SW2 whole entry): as the sequence (Q96SW2 whole entry) above
T3 sequence (Q16531 whole entry partner): as the sequence (Q16531 whole entry partner) above
T2 sequence (Q9UKS7 whole entry): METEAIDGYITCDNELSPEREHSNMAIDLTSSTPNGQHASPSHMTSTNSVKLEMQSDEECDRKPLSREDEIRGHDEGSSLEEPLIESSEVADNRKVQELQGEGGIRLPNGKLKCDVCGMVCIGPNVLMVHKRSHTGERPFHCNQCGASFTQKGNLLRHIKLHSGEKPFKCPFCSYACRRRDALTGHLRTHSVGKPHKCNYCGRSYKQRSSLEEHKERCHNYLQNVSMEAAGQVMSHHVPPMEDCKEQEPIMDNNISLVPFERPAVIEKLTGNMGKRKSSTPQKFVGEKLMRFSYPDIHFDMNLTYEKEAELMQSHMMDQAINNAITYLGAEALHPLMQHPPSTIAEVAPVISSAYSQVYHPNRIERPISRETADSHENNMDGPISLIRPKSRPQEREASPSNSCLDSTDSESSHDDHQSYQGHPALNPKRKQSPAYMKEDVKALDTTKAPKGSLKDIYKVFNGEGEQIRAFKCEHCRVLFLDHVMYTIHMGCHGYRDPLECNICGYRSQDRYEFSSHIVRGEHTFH
T2 sequence (Q96SW2 whole entry): as the sequence (Q96SW2 whole entry) above
T2 sequence (Q16531 whole entry partner): as the sequence (Q16531 whole entry partner) above

Row | SMILES | IKZF3 substrate protein remaining % (IKZF3; [1]) | IKZF2 substrate protein remaining % (IKZF2; [1]) | Weel substrate protein remaining % (WEE1; [1]) | GSPT1 substrate protein remaining % (GSPT1; [1]) | CK1a substrate protein remaining % (CK1α; [1]) | IKZF 1 substrate protein remaining % (IKZF1; [1]) | IKZF3 substrate protein remaining % (IKZF3; [2]) | IKZF2 substrate protein remaining % (IKZF2; [2]) | Weel substrate protein remaining % (WEE1; [2]) | GSPT1 substrate protein remaining % (GSPT1; [2]) | CK1a substrate protein remaining % (CK1α; [2]) | IKZF 1 substrate protein remaining % (IKZF1; [2])
1 | O=C1CCC(N2C(=O)c3ccc(CN4CCC(c5cccc(Cl)c5Cl)CC4)cc3C2=O)C(=O)N1 (stereo not drawn) [GT-06358, 5-((4-(2,3-dichlorophenyl)piperidin-1-yl)methyl)-2-(2,6-dioxopiperidin-3-yl)isoindoline-1,3-dione] | B (80%< substrate protein remaining %≤ 100%) | A (0% ≤ substrate protein remaining % ≤ 80%) | A (0% ≤ substrate protein remaining % ≤ 80%) | A (0% ≤ substrate protein remaining % ≤ 80%) | B (80%< substrate protein remaining %≤ 100%) | A (0% ≤ substrate protein remaining % ≤ 80%) |  |  |  |  |  | 
2 | O=C1CCC(N2C(=O)c3ccc(CN4CCC(c5ccsc5)CC4)cc3C2=O)C(=O)N1 (stereo not drawn) [GT-06281, 2-(2,6-dioxopiperidin-3-yl)-5-((4-(thiophen-3-yl)piperidin-1-yl)methyl)isoindoline-1,3-dione] | B (80%< substrate protein remaining %≤ 100%) | B (80%< substrate protein remaining %≤ 100%) | B (80%< substrate protein remaining %≤ 100%) | A (0% ≤ substrate protein remaining % ≤ 80%) | B (80%< substrate protein remaining %≤ 100%) | B (80%< substrate protein remaining %≤ 100%) |  |  |  |  |  | 
3 | O=C1CCC(N2C(=O)c3ccc(CN4CCC(c5cccc(F)c5Cl)CC4)cc3C2=O)C(=O)N1 (stereo not drawn) [GT-06360, 5-((4-(2-chloro-3-fluorophenyl)piperidin-1-yl)methyl)-2-(2,6-dioxopiperidin-3-yl)isoindoline-1,3-dione] | B (80%< substrate protein remaining %≤ 100%) | A (0% ≤ substrate protein remaining % ≤ 80%) | A (0% ≤ substrate protein remaining % ≤ 80%) | A (0% ≤ substrate protein remaining % ≤ 80%) | B (80%< substrate protein remaining %≤ 100%) | A (0% ≤ substrate protein remaining % ≤ 80%) |  |  |  |  |  | 
4 | O=C1CCC(N2C(=O)c3ccc(CNC45CC6CC(CC(C6)C4)C5)cc3C2=O)C(=O)N1 (stereo not drawn) [GT-06912, 5-((((3s,5s,7s)-adamantan-1-yl)amino)methyl)-2-(2,6-dioxopiperidin-3-yl)isoindoline-1,3-dione] | B (80%< substrate protein remaining %≤ 100%) | A (0% ≤ substrate protein remaining % ≤ 80%) | A (0% ≤ substrate protein remaining % ≤ 80%) | A (0% ≤ substrate protein remaining % ≤ 80%) | A (0% ≤ substrate protein remaining % ≤ 80%) | A (0% ≤ substrate protein remaining % ≤ 80%) |  |  |  |  |  | 
5 | O=C1CCC(N2C(=O)c3ccc(CN4CC=C(c5ccsc5)CC4)cc3C2=O)C(=O)N1 (stereo not drawn) [GT-06261, 2-(2,6-dioxopiperidin-3-yl)-5-((4-(thiophen-3-yl)-3,6-dihydropyridin-1(2H)-yl)methyl)isoindoline-1,3-dione] | A (0% ≤ substrate protein remaining % ≤ 80%) | A (0% ≤ substrate protein remaining % ≤ 80%) | A (0% ≤ substrate protein remaining % ≤ 80%) | A (0% ≤ substrate protein remaining % ≤ 80%) | A (0% ≤ substrate protein remaining % ≤ 80%) | A (0% ≤ substrate protein remaining % ≤ 80%) |  |  |  |  |  | 
6 | O=C1CCC(N2C(=O)c3ccc(CN4CCN(c5cccc(F)c5F)CC4)cc3C2=O)C(=O)N1 (stereo not drawn) [GT-06300, 5-((4-(2,3-difluorophenyl)piperazin-1-yl)methyl)-2-(2,6-dioxopiperidin-3-yl)isoindoline-1,3-dione] | B (80%< substrate protein remaining %≤ 100%) | B (80%< substrate protein remaining %≤ 100%) | B (80%< substrate protein remaining %≤ 100%) | A (0% ≤ substrate protein remaining % ≤ 80%) | B (80%< substrate protein remaining %≤ 100%) | B (80%< substrate protein remaining %≤ 100%) |  |  |  |  |  | 
7 | O=C1CCC(N2C(=O)c3ccc(CN4CC5CCC4CN5c4cccc(Cl)c4Cl)cc3C2=O)C(=O)N1 (stereo not drawn) [GT-06692, 5-((5-(2,3-dichlorophenyl)-2,5-diazabicyclo[2.2.2]octan-2-yl)methyl)-2-(2,6-dioxopiperidin-3-yl)isoindoline-1,3-dione] | B (80%< substrate protein remaining %≤ 100%) | A (0% ≤ substrate protein remaining % ≤ 80%) | A (0% ≤ substrate protein remaining % ≤ 80%) | A (0% ≤ substrate protein remaining % ≤ 80%) | B (80%< substrate protein remaining %≤ 100%) | B (80%< substrate protein remaining %≤ 100%) |  |  |  |  |  | 
8 | O=C1CCC(N2C(=O)c3ccc(CN4CCN(c5nc(Cl)nc6c5SCC6)CC4)cc3C2=O)C(=O)N1 (stereo not drawn) [GT-06710, 5-((4-(2-chloro-6,7-dihydrothieno[3,2-d]pyrimidin-4-yl)piperazin-1-yl)methyl)-2-(2,6-dioxopiperidin-3-yl)isoindoline-1,3-dione] | B (80%< substrate protein remaining %≤ 100%) | A (0% ≤ substrate protein remaining % ≤ 80%) | B (80%< substrate protein remaining %≤ 100%) | A (0% ≤ substrate protein remaining % ≤ 80%) | B (80%< substrate protein remaining %≤ 100%) | B (80%< substrate protein remaining %≤ 100%) |  |  |  |  |  | 
9 | O=C1CCC(N2C(=O)c3ccc(CN4CCN(c5ccc(Br)cc5)CC4)cc3C2=O)C(=O)N1 (stereo not drawn) [GT-06295, 5-((4-(4-bromophenyl)piperazin-1-yl)methyl)-2-(2,6-dioxopiperidin-3-yl)isoindoline-1,3-dione] | B (80%< substrate protein remaining %≤ 100%) | B (80%< substrate protein remaining %≤ 100%) | B (80%< substrate protein remaining %≤ 100%) | A (0% ≤ substrate protein remaining % ≤ 80%) | B (80%< substrate protein remaining %≤ 100%) | B (80%< substrate protein remaining %≤ 100%) |  |  |  |  |  | 
10 | O=C1CCC(N2C(=O)c3ccc(CN4CCN(c5ccncc5)CC4)cc3C2=O)C(=O)N1 (stereo not drawn) [GT-06553, 2-(2,6-dioxopiperidin-3-yl)-5-((4-(pyridin-4-yl)piperazin-1-yl)methyl)isoindoline-1,3-dione] | B (80%< substrate protein remaining %≤ 100%) | A (0% ≤ substrate protein remaining % ≤ 80%) | B (80%< substrate protein remaining %≤ 100%) | A (0% ≤ substrate protein remaining % ≤ 80%) | B (80%< substrate protein remaining %≤ 100%) | B (80%< substrate protein remaining %≤ 100%) |  |  |  |  |  | 
11 | O=C1CCC(N2C(=O)c3ccc(CN4CCC(c5cccc6c(F)cccc56)CC4)cc3C2=O)C(=O)N1 (stereo not drawn) [GT-06263, 2-(2,6-dioxopiperidin-3-yl)-5-((4-(5-fluoronaphthalen-1-yl)piperidin-1-yl)methyl)isoindoline-1,3-dione] |  |  |  |  |  |  | A (0% ≤ substrate protein remaining % ≤ 80%) | B (80%< substrate protein remaining %≤ 100%) | B (80%< substrate protein remaining %≤ 100%) | A (0% ≤ substrate protein remaining % ≤ 80%) | A (0% ≤ substrate protein remaining % ≤ 80%) | B (80%< substrate protein remaining %≤ 100%)
12 | Cc1ccc(N2CCN(Cc3ccc4c(c3)C(=O)N(C3CCC(=O)NC3=O)C4=O)CC2)c(C)c1 (stereo not drawn) [GT-06366, 5-((4-(2,4-dimethylphenyl)piperazin-1-yl)methyl)-2-(2,6-dioxopiperidin-3-yl)isoindoline-1,3-dione] | A (0% ≤ substrate protein remaining % ≤ 80%) | A (0% ≤ substrate protein remaining % ≤ 80%) | B (80%< substrate protein remaining %≤ 100%) | A (0% ≤ substrate protein remaining % ≤ 80%) | B (80%< substrate protein remaining %≤ 100%) | B (80%< substrate protein remaining %≤ 100%) |  |  |  |  |  | 
